Test results taken from BindingDB's records for doi:10.7270/Q2M32T6M (Vanderbilt Screening Center for GPCRs, Ion Channels and …, 2009).
Non-standard residues stand in square brackets, D forms with d. Residues, ends and D or L forms follow the SMILES beside them. ξ: configuration not given here. *: point of attachment. ξF = NC(Cc1ccccc1)C(=O)O; Cbz = O=C(OCc1ccccc1)*

What follows are compounds tested against T1, Solute carrier family 12 member 5 (Homo sapiens, UniProt Q9H2X9) (assay: KCC2 modulator potency by thallium flux, dose response, cell-based, HEK293 KCC2, FluoZin-2 fluorescence (AID 1736)). Conditions: not given.
T1 sequence (Q9H2X9 whole entry): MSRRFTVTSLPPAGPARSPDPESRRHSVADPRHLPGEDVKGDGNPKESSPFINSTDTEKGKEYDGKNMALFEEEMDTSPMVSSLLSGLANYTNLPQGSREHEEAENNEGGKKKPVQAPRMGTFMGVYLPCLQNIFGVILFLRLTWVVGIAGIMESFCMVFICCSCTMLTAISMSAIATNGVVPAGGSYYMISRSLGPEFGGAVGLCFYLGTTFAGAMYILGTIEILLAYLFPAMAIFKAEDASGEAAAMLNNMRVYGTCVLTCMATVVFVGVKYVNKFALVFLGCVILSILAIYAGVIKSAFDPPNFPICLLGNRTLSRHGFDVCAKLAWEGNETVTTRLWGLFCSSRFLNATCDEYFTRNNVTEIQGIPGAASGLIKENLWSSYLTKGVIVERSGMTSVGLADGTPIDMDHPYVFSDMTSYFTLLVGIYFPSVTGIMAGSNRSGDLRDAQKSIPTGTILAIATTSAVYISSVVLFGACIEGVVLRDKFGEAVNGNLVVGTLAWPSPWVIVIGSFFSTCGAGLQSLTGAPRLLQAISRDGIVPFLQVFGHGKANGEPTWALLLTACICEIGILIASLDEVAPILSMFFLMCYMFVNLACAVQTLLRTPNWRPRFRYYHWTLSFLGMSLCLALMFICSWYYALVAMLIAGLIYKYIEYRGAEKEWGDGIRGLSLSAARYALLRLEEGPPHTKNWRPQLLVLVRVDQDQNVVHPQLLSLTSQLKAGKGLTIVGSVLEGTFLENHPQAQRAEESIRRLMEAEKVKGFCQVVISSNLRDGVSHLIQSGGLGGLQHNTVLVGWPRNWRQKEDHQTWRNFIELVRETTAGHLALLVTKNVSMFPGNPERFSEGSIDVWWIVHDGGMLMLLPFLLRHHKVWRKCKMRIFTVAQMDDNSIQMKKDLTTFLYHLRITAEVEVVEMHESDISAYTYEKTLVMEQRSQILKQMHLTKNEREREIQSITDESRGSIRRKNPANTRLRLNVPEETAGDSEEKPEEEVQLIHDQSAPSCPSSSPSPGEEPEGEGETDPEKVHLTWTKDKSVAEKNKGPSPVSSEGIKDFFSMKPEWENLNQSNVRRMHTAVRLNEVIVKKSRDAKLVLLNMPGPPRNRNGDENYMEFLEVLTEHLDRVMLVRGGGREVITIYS

| Compound | EC50 [µM] |
| --- | --- |
| O=C(CCSCCc1ccccn1)Nc1ccc(Cc2ccncc2)cc1 [3-(2-pyridin-2-ylethylsulfanyl)-N-[4-(pyridin-4-ylmethyl)phenyl]propanamide] | 72.4 |
| CC(=NNC(=S)Nc1c(C)cccc1C)c1cc2ccccc2o1 [SMR000260555] | 2.79 |
| CCOC(=O)CNC(=O)C(Cc1ccccc1)NC(=O)OCc1ccccc1 (stereo not drawn) [2-[[1-oxo-3-phenyl-2-(phenylmethoxycarbonylamino)propyl]amino]acetic acid ethyl ester] (Cbz-[ξF]-Gly-OEt) | 2.16 |
| COc1ccc(S(=O)(=O)N(C)CC(=O)N2CCN(Cc3ccccc3)CC2)cc1C [4-methoxy-N,3-dimethyl-N-[2-oxidanylidene-2-[4-(phenylmethyl)piperazin-1-yl]ethyl]benzenesulfonamide] | 2.26 |
| CCc1ccc(OCCNC(=O)c2ccccc2SCc2ccccc2)cc1 [2-(benzylthio)-N-[2-(4-ethylphenoxy)ethyl]benzamide] | 35.2 |
| CS(=O)(=O)N(CC(=O)N1CCN(c2ccccc2)CC1)c1cccc(Br)c1 [MLS000110474] | 3.74 |
| O=C(NCc1cccnc1)c1ccc(COc2ccccc2Br)o1 [5-[(2-bromanylphenoxy)methyl]-N-(pyridin-3-ylmethyl)furan-2-carboxamide] | 13.8 |
| O=C(C1CCCN(S(=O)(=O)c2cccc3nonc23)C1)N1CCC(Cc2ccccc2)CC1 (stereo not drawn) [(1-benzofurazan-4-ylsulfonyl-3-piperidyl)-(4-benzylpiperidino)methanone] | 1460 |
| O=C(O)/C=C/c1cn(Cc2ccccc2Cl)nc1-c1ccccc1 [(E)-3-[1-(2-chlorobenzyl)-3-phenyl-pyrazol-4-yl]acrylic acid] | 0.409 |
| CC1(CCc2ccccc2)NC(=O)N(Cc2nnc(-c3ccccc3Br)o2)C1=O (stereo not drawn) [3-[[5-(2-bromophenyl)-1,3,4-oxadiazol-2-yl]methyl]-5-methyl-5-(2-phenylethyl)imidazolidine-2,4-dione] | 6.01 |
| Cc1ccc2oc(-c3ccc(C)c(NC(=S)NC(=O)c4cccs4)c3)nc2c1 [1-[2-Methyl-5-(5-methyl-benzooxazol-2-yl)-phenyl]-3-(thiophene-2-carbonyl)-thiourea] | 0.761 |
| CN1C(=O)/C(=C/c2ccccc2OCc2ccccc2)NC1=S [(5Z)-3-methyl-5-[(2-phenylmethoxyphenyl)methylidene]-2-sulfanylidene-4-imidazolidinone] | 1640 |
| O=C(/C=C/c1ccco1)N1CCC(Cc2ccccc2)CC1 [(E)-1-(4-benzylpiperidin-1-yl)-3-(furan-2-yl)prop-2-en-1-one] | 9.8 |
| O=C(CSc1nnc(CNc2ccccc2)o1)N1CCCc2ccccc21 [1-(3,4-Dihydro-2H-quinolin-1-yl)-2-(5-phenylaminomethyl-[1,3,4]oxadiazol-2-ylsulfanyl)-ethanone] | 1730 |
| CC(=O)NCC1CCCN(c2nc3nonc3nc2N(C)Cc2ccccc2)C1 (stereo not drawn) [MLS000731683] | 5.1 |
| Cc1ccc(S(=O)(=O)N2CCC(=O)N(C(COCc3ccccc3)Cc3ccccc3)CC2)cc1 (stereo not drawn) [1-(4-methylphenyl)sulfonyl-4-(1-phenyl-3-phenylmethoxy-propan-2-yl)-1,4-diazepan-5-one] | 1.24 |
| O=C(c1ccc(-c2ccccc2)cc1)C1CCCN(Cc2ccncc2)C1 (stereo not drawn) [(4-phenylphenyl)-[1-(4-pyridylmethyl)-3-piperidyl]methanone] | 4.61 |
| CC1CCCCN1C(=O)CSc1nnc(-c2c[nH]c3ccccc23)o1 (stereo not drawn) | 15.2 |
| O=C(Cn1cnc2c(nnn2Cc2ccc(F)cc2)c1=O)N1CCN(c2ccccc2)CC1 [3-(4-fluorobenzyl)-6-[2-keto-2-(4-phenylpiperazino)ethyl]triazolo[4,5-d]pyrimidin-7-one] | 1.65 |

Same assay, conditions: inactive by the depositor's call

| Compound | EC50 [µM] |
| --- | --- |
| S=C(Nc1ccccn1)Nc1ccccc1Cl [1-(2-chlorophenyl)-3-(2-pyridinyl)thiourea] | 1.97 |
| c1coc(CNc2nc3nonc3nc2NCc2ccco2)c1 [2-furfuryl-[5-(2-furfurylamino)furazano[3,4-b]pyrazin-6-yl]amine] | 43.7 |
| O=C(Cn1nc(-c2ccccc2F)ccc1=O)NCc1ccc2c(c1)OCO2 [2-[3-(2-fluorophenyl)-6-keto-pyridazin-1-yl]-N-piperonyl-acetamide] | 8.27 |
| O=C(CCc1ccccc1)NC(=S)Nc1cccc(Br)c1 [MLS000583293] | 296 |
